The numbers were not newly measured in patent US20220248734A1, “NUTRITIONAL HEALTH SUPPLEMENTS” (MAYO FOUNDATION FOR MEDICAL EDUCATION AND RESEARCH, priority 2019, published 2022), which cites them from elsewhere.

The conditions of the series: NAC received within 24 hours of head injury from a blast.

Turning to `CC(=O)N[C@@H](CS)C(=O)O` [NAC, N-acetyl cysteine], the side effects result was “no reported side effects” and the symptom resolution entry is listed as “significantly increases symptom resolution”.
